Assay results taken from patent publication US8486979B2, “1,2,4 oxadiazole compounds and methods of use thereof” (AbbVie Inc., priority 2006, dated 2013).

What was measured:
[1] = test system: nerve injury induced mechanical allodynia; assay: Chung model of neuropathic pain (L5-L6 spinal nerve ligation, tactile allodynia, von Frey); assay type: in vivo; conditions: rat; for mechanical paw withdrawal threshold (PWT): i.p.
Method: Animals: Male Sprague-Dawley rats (Charles River, Wilmington, Mass.) weighing 120-150 grams at time of surgery were utilized. These animals were group housed in AAALAC approved facilities at Abbott Laboratories in a temperature-regulated environment with lights on between 0700 and 2000 hours. Food and water was available ad libitum except during testing. All animal handling and experimental protocols were approved by an institutional animal care and use committee (IACUC). All experiments were performed during the light cycle.
Chemicals: 5-[(2R)-Azetidin-2-ylmethoxy]-2-chloropyridine (Compound A, 1-100 nmol/kg) and 3-(3-pyridin-3-yl)-1,2,4-oxadiazol-5-yl)benzonitrile (α4β2 PAM Compound 1, 1-35 μmol/kg, i.p.) was used. Compound A and D was prepared in saline and injected in solution in a volume of 2 ml/kg body weight 30 minutes before behavioral evaluation. Compound 1,3-(3-(pyridin-3-yl)-1,2,4-oxadiazol-5-yl)benzonitrile, was prepared in 30% hydroxybetacyclodextrin and injected in solution in a volume of 4 ml/kg body weight immediately before Compound A. For studies with Compound D, the doses tested ranged from 0.3-30 μmol/kg i.p.
Experimental Procedure: To produce neuropathic pain, tight ligation of the L5-L6 spinal nerves was performed. As previously described in detail by Kim and Chung (Kim S H and Chung J M (1992), Pain 50: 355), following sterilization procedures, a 1.5 cm incision was made dorsal to the lumbosacral plexus. The paraspinal muscles (left side) were separated from the spinous processes, the L5 and L6 spinal nerves isolated, and tightly ligated with 3-0 silk thread. Following hemostasis, the wound was sutured and coated with antibiotic ointment. The rats were allowed to recover and then placed in a cage with soft bedding for 7-14 days before behavioral testing for mechanical allodynia.
Tactile allodynia was measured using calibrated (force; g) von Frey filaments (Stoelting, Wood Dale, Ill.). Briefly, rats were placed into individual plexiglass containers and allowed to acclimate for 15-20 minutes before testing. Withdrawal threshold was determined by increasing and decreasing stimulus intensity and estimated using a Dixon non-parametric test (Chaplan et al., 1994; Chaplan S R, Bach F W, Pogrel J W, Chung J M and Yaksh T L (1994) J Neurosci Methods 53:55-63). Only rats with threshold scores ≦4.5 g were considered allodynic and utilized in further testing. A percent of maximal possible effect (% M.P.E.) of the tested compounds was calculated according to the formula: ([post-drug threshold]−[baseline threshold])/([maximum threshold]−[baseline threshold])×100%, where maximum threshold was equal to 15 g.
Statistical analysis: Analysis of the in vivo data was carried out using analysis of variance. Where appropriate, Bonferroni's Multiple Comparison Test was used for post-hoc analysis. The level of significance was set at p less than 0.05. Data are presented as mean ±S.E.M.

[2] = molecular target: T1, human α4β2 nicotinic acetylcholine receptor (Homo sapiens, UniProt P17787+P43681); assay: Calcium flux (FLIPR) assay, HEK-293 cells expressing human α4β2 nAChR; assay type: cell-based; conditions: for calcium response of partial agonist alone: without PAM; for calcium response of partial agonist co-applied with PAM: co-applied with PAM Compound 1, α4β2 nAChRs
T1 construct: expressed in transfected cells
T1 sequence (P43681 29-627 limits assumed): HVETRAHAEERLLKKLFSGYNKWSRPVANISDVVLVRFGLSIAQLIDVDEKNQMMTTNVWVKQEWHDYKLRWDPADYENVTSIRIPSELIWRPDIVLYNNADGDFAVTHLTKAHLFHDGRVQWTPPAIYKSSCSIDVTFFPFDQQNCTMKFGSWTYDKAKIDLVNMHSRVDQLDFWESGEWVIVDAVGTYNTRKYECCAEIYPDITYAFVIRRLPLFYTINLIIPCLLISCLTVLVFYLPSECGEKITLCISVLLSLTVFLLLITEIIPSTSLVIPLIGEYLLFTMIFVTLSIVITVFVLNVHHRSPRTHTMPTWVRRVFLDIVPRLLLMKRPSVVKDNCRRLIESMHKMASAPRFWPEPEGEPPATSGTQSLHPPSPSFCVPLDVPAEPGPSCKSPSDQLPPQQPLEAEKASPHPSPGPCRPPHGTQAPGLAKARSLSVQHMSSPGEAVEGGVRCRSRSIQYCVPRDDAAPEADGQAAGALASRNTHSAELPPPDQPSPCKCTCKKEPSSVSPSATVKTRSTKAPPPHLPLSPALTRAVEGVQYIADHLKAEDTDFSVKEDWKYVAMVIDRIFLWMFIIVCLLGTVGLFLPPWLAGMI
T1 sequence (P17787 26-502): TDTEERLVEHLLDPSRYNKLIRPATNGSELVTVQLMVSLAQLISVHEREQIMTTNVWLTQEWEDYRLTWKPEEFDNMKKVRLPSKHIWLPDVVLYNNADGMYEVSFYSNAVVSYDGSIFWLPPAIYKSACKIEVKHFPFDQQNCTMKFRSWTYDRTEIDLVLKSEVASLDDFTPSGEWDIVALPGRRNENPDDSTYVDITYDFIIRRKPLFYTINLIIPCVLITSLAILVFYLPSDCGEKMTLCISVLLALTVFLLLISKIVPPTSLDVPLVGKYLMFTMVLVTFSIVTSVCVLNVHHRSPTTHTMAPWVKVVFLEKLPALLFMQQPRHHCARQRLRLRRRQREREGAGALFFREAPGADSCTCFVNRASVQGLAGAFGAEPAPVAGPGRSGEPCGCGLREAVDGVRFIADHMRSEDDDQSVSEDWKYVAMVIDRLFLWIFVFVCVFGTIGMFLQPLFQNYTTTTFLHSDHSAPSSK
Method: (§1) Experimental Procedure: Human embryonic kidney (HEK) 293 cells stably expressing human α4β2 or α3β4 combinations are grown to confluency in 162 cm^2 tissue culture flasks in DMEM media supplemented with 10% FBS and 25 μg/ml zeocin and 200 μg/ml hygromycin B. IMR-32 neuroblastoma cells (ATCC) are grown to confluency in 162 cm^2 tissue culture flasks in minimum essential media supplemented with 10% FBS and 1 mM sodium pyruvate, 1% non-essential amino acids and 1% antibiotic-antimycotic. The cells are then dissociated using cell dissociation buffer and 100-150 μl per well of 3.5×10^5 cells/ml cell suspension (˜50,000-100,000 cells/well) was plated into 96-well black plates (poly-D-lysine precoated) with clear bottom and maintained for 24-48 hours in a tissue culture incubator at 37° C. under an atmosphere of 5% CO2: 95% air. Other clonal cell lines or primary cell cultures that express endogenous α4* nicotinic receptors may also be used in this assay. Calcium flux was measured using calcium-3 assay kit (Molecular Devices, Sunnyvale, Calif.) or fluo-4 (Invitrogen). A stock solution of the dye was prepared by dissolving each vial supplied by the vendor in Hank's balanced salt solution buffer (HBSS) or 150 mM NMDG, 20 mM CaCl2 containing 10 mM HEPES, The stock solution was diluted 1:20 using the same buffer before use. The growth media was removed from the cells. The cells were loaded with 100 μl of the dye per well and incubated at room temperature for up to one hour for HEK 293 clonal stable cell lines or 30 minutes-45 minutes at 37° C. for IMR-32 cells Fluorescence measurements were read simultaneously from all the wells by a Fluorometic Imaging Plate Reader (FLIPR) at an excitation wavelength of 480 nm and an emission wavelength of 520 nm. Baseline fluorescence was measured for the first 6 seconds at which 3× concentrations of modulator/test compounds were added to the cell plate at 50 μl and incubated for five minutes. The fluorescence intensity was captured every second for the first 1 minute followed by every 5 seconds for an additional 4 minutes. This procedure was followed by 50 μl of 4× concentration of agonist and readings were taken for a period of 3-5 minutes as described above. Data was normalized to maximal responses and plotted as a function of concentration. The concentration dependence of changes fluorescence responses was fitted by nonlinear regression analysis (GraphPad Prism, San Diego, Calif.) to obtain EC50 values.
The positive allosteric modulator effects on α4β2 nAChRs exemplified by 3-(3-pyridin-3-yl-1,2,4-oxadiazol-5-yl)benzonitrile (Compound 1) and 3,5-di(pyridin-3-yl)-1,2,4-oxadiazole (Compound 2) can be identified by measuring their potentiating effect to fluorescence changes in intracellular calcium using a fluorimetric plate reader. The potentiating effect of an α4β2 modulator on α4β2 receptor can also be illustrated by concentration responses to α4β2 agonists, for example 5-[(2R)-azetidin-2-ylmethoxy]-2-chloropyridine (Compound A) and (3R)-1-pyridin-3-ylpyrrolidin-3-amine (Compound B), in presence of a fixed concentration of PAM. […] In addition to compound A and B, other known nicotinic agonists can be left-shifted in presence of α4β2 PAM such as […]. […] This could lead to preferential effects of the agonist at the desired subtype, viz., α4β2, without effects at other nicotinic receptor subtypes and thus enhancing in vivo selectivity of the agonist.
The activity (allosteric effects—potentiation of fluorescence responses) ranges are defined as follows; “a” denotes as activity range from 200-400%, “b” denotes an activity range from 150-200%, “c” denotes an activity range from 120-150% and “d” denotes an activity range 90-120%. […]

[3] = molecular target: T2, human α3β4 nicotinic acetylcholine receptor (Homo sapiens, UniProt P30926+P32297); assay: Calcium flux (FLIPR) assay, HEK-293 cells expressing human α3β4 nAChR; assay type: cell-based; conditions: for calcium response of partial agonist co-applied with PAM: co-applied with PAM Compound 1, α3β4 nAChRs
T2 construct: expressed in transfected cells
T2 sequence (P32297 32-505): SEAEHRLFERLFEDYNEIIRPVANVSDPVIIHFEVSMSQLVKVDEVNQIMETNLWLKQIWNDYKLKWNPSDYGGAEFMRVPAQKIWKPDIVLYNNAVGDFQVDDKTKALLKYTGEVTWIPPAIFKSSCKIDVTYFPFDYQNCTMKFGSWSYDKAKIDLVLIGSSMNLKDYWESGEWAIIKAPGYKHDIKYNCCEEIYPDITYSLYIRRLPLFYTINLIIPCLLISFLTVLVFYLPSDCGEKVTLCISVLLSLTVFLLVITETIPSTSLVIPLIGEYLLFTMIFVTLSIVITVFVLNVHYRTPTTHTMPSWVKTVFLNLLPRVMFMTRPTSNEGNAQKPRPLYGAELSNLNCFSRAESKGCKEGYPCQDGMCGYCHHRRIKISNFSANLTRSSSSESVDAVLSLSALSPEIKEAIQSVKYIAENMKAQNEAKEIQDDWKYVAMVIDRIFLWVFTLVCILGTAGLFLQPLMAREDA
T2 sequence (P30926 22-498): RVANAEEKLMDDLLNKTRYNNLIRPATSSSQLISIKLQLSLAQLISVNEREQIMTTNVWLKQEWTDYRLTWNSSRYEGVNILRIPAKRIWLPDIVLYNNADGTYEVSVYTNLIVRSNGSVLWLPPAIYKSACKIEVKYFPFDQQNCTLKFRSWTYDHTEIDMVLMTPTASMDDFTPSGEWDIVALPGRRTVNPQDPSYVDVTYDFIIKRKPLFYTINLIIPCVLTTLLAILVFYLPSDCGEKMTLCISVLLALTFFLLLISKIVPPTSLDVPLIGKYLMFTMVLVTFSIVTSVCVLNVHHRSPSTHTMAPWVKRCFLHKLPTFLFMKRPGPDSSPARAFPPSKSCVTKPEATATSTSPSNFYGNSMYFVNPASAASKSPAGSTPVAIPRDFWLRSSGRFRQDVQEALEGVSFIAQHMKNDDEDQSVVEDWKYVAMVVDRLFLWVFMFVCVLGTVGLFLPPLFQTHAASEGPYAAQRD
Method: as §1, with “A stock solution of the dye was prepared by dissolving each vial supplied by the vendor in Hank's balanced salt solution buffer (HBSS) or 150 mM NMDG, 20 mM CaCl2 containing 10 mM HEPES, The stock solution was diluted 1:20 using the same buffer before use. The growth media was removed from the cells.” left out, “Data was normalized to maximal responses and plotted as a function of concentration.” left out, “values. […]” for “values.”

[4] = test system: emesis; assay: Emesis in ferrets; assay type: in vivo; conditions: ferret
Method: Fasted male ferrets (Marshall BioResources, North Rose, N.Y.) weighing between 1.0 and 1.7 kg are used to determine the emetic effects. α4β2 PAM (Compound 1) was administered first and thirty minutes later, Compound A was administered at various doses. […] The percentage of animals that experienced emesis at a given dose was recorded.

[5] = molecular target: T3, α4β2 nAChR modulator site (Homo sapiens, UniProt P17787+P43681); assay: [3H]-POB binding, membrane enriched fractions from human cortex; conditions: saturation binding, human frontal cortex membranes, 4° C.
T3 construct: membrane enriched fractions from human cortex (ABS Inc., Wilmington, Del.); tissue ABS Inc., Wilmington, Del; host or cells: human cortex (frontal cortex) membrane enriched fractions
T3 sequence (P43681 29-627 limits assumed): as the sequence (P43681 29-627 limits assumed) above
T3 sequence (P17787 26-502): as the sequence (P17787 26-502) above
Method: [^3H]-POB ([^3H]-3-(5-(pyridin-3-yl)-1,2,4-oxadiazol-3-yl)benzonitrile) binding to a α4β2 nAChR modulator site was determined using membrane enriched fractions from human cortex (ABS Inc., Wilmington, Del.). Pellets were thawed at 4° C., washed and resuspended with a Polytron at a setting of 7 in 30 volumes of BSS-Tris buffer (120 mM NaCl, 5 mM KCl, 2 mM CaCl2, 2 mM MgCl2, and 50 mM Tris-Cl, pH 7.4, 4° C.). For saturation binding isotherms, eight concentrations of [^3H]-POB (10-250 nM) in quadruplicate and homogenate containing 100-200 μg of protein were incubated in a final volume of 500 μL for 75 minutes at 4° C. Non-specific binding was determined in the presence of 30 μM unlabeled 3-(5-(pyridin-3-yl)-1,2,4-oxadiazol-3-yl)benzonitrile. Under these conditions, saturable binding of [^3H]-POB binding was measured in membrane enriched fractions from human frontal cortex (FIG. 10). […]
For use in concentration-inhibition assays, seven log-dilution concentrations of test compounds containing 100-200 μg of protein, and 50 nM [^3H]-POB (16.4 Ci/mmol) were incubated in a final volume of 500 μL for 75 minutes at 4° C. in duplicate. Non-specific binding was determined in the presence of 30 μM 3-(5-(pyridin-3-yl)-1,2,4-oxadiazol-3-yl)benzonitrile. […] IC50 values were determined by nonlinear regression in Microsoft® Excel or Assay Explorer. […]

[6] = Compound 1 3.5 μmol/kg with various doses of Compound A

Clc1ccc(OC[C@H]2CCN2)cn1 [Compound A, 5-[(2R)-azetidin-2-ylmethoxy]-2-chloropyridine]
efficacy in neuropathic pain ([1]; 1 nmol/kg, alone): ineffective | mechanical paw withdrawal threshold (PWT) ([1]; 0.03 μmol/kg, alone): 5.6 ± 0.3 g | efficacy in neuropathic pain ([1]; Compound A 1 nmol/kg combined with varying doses of PAM Compound 1): dose-dependent increase in efficacy

c1ccc2ncc(N3C[C@@H]4CN[C@@H]4C3)cc2c1 [Compound D, (1S,5S)-3-(3,6-diaza-bicyclo[3.2.0]hept-3-yl)-quinoline]
calcium response of partial agonist alone [2]: does not evoke a response | calcium response of partial agonist co-applied with PAM [2]: evoked robust responses | efficacy in neuropathic pain, administered alone ([1]; alone): ineffective in reversing neuropathic pain | efficacy in neuropathic pain, co-dosed with α4β2 PAM ([1]; co-dosed with Compound 1): significant relief of neuropathic pain | calcium response of partial agonist co-applied with PAM [3]: not at α3β4 nAChRs

N#Cc1cccc(-c2nc(-c3cccnc3)no2)c1 [Example 1, 3-(3-(pyridin-3-yl)-1,2,4-oxadiazol-5-yl)benzonitrile]
Activity (allosteric effects—potentiation of fluorescence responses) ([2]; α4β2 positive allosteric modulation, calcium fluorescence (FLIPR)): a (“a” denotes as activity range from 200-400%) | shift of emesis dose response curve of Compound A [4, 6]: does not shift the dose response curve of Compound A | emesis ([4]; alone): does not cause emesis | mechanical paw withdrawal threshold (PWT) ([1]; 10 mg/kg, alone): 3.3 ± 0.4 g | shift of neuropathic pain dose response curve of Compound A [1, 6]: left-shifting the dose response curve of Compound A | efficacy in neuropathic pain, administered alone ([1]; alone): ineffective | effect of PAM on concentration responses to the agonists ([3]; cells expressing α3β4, agonists Compound A and Compound B): unable to affect the concentration responses to the agonists

Cc1ncccc1OC[C@@H]1CCCN1 [Compound C, 2-methyl-3-(2-(S)-pyrrolidinylmethoxy)pyridine, reference compound]
calcium response of partial agonist alone [2]: does not evoke a calcium response | calcium response of partial agonist co-applied with PAM [2]: evoked robust responses | calcium response of partial agonist co-applied with PAM [3]: not at α3β4 nAChRs

[3H]c1cncc(-c2nc(-c3cccc(C#N)c3)no2)c1 [Example 135, [^3H]-3-(5-(pyridin-3-yl)-1,2,4-oxadiazol-3-yl)benzonitrile]
Bmax [5]: 2900±500 fmol/mg protein | Kd [5]: 60 ± 16 nM
